Earlier results as cited in patent US20060182828A1, “METHODS OF REDUCING LIPID PEROXIDATION AND ACHIEVING RELATED HEALTH BENEFITS BY THE ADMINISTRATION OF TOCOPHEROL AND SESAME LIGNANS” (priority 2005, published 2006).
Values belong to the molecule of their own block, whether it stands above or below them.

Legend:
LDL [1] = system: LDL
[2] = system: peroxisomal palmitoyl Co-A oxidation; conditions: in vivo
[3] = rats
mouse skin papillomas = conditions: induced with 12-0-tetradecanoylphorbol 1 acetate
[4] = system: sterol regulatory element binding protein-1 (SREBP-1) m RNA; conditions: 0.4% sesamin diet group
LDL [5] = conditions: Cu-ascorbate induced
heart disease = conditions: supplementation with 30 IU to 100 IU
[6] = 32.4 then 64.8 mg, total of 8 weeks
[7] = hypercholesterolemic men, before

Molecule: Cc1c(C)c2c(c(C)c1O)CC[C@@](C)(CCC[C@H](C)CCC[C@H](C)CCCC(C)C)O2 [alpha-tocopherol]
formation of 4-hydroxy-2-nonenal (4-HNE), of control values (LDL [1]): absolutely no effect
formation of malondialdehyde (MDA), of control values (LDL [1]): absolutely no effect

Molecule: c1cc2c(cc1[C@H]1OC[C@H]3[C@@H]1CO[C@@H]3c1ccc3c(c1)OCO3)OCO2 [episesamin]
increase of peroxisomal palmitoyl Co-A oxidation rate [2]: 5.1 fold

gamma tocopherol level in serum ([3]; serum): 3 micromoles per liter
gamma tocopherol levels in tissues (liver, kidney, brain) ([3]; tissue): 3 nmol per gram
Molecule: Cc1c(O)cc2c(c1C)O[C@](C)(CCC[C@H](C)CCC[C@H](C)CCCC(C)C)CC2 [gamma-tocopherol]

Molecule: CC(C)(Sc1cc(C(C)(C)C)c(O)c(C(C)(C)C)c1)Sc1cc(C(C)(C)C)c(O)c(C(C)(C)C)c1 [probucal]
formation of 4-hydroxy-2-nonenal (4-HNE), of control values (LDL [1]): absolutely no effect
formation of malondialdehyde (MDA), of control values (LDL [1]): absolutely no effect

Molecule: Oc1ccc(C=Cc2cc(O)cc(O)c2)cc1 [resveratrol]
reduction of formation of mouse skin papillomas (mouse skin papillomas): 60%

Molecule: c1cc2c(cc1[C@H]1OC[C@H]3[C@@H]1CO[C@@H]3c1ccc3c(c1)OCO3)OCO2 [sesamin]
LDL cholesterol, after [6]: 156.4
apolipoprotein B, after [6]: 168.5
changes in HDL cholesterol [6]: no changes
changes in triglycerides [6]: no changes
mean total cholesterol, after [6]: 248.3
LDL cholesterol, before [7]: 187.1
apolipoprotein B, before [7]: 188.8
mean total cholesterol, before [7]: 272.0
increase of peroxisomal palmitoyl Co-A oxidation rate [2]: 1.6 fold
SREBP-1 m RNA level relative to rats fed a sesamin-free diet [4]: one-half

Molecule: Oc1cc2c(cc1[C@H]1OC[C@H]3[C@@H]1CO[C@@H]3c1ccc3c(c1)OCO3)OCO2 [sesaminol]
formation of 4-hydroxy-2-nonenal (4-HNE), of control values (LDL [1]): 17%
formation of malondialdehyde (MDA), of control values (LDL [1]): 13%
inhibited TBARS formation (LDL [1]; 0.1 micromolar concentration): 82.8%
protection against TBARS formation (LDL [1]; one micromolar concentration): 100%
IC50 (LDL [1]; read-out: IC50, lipid peroxidation of LDL): 36 ± 10 nM
lag time longer than tetrahydrocurcumin (LDL [5]): 567%
lag time of LDL oxidation (LDL [5]): 510 min

Molecule: Oc1ccc2c(c1)OCO2 [sesamol]
reduction of formation of mouse skin papillomas (mouse skin papillomas): 50%

Molecule: vitamin E
lowers the risk of heart disease (heart disease): 41%
